Assay results: patent US12702667B2, “Focal adhesion kinase inhibitor as a therapeutic agent in diabetes” (University of Pittsburgh—Of the Commonwealth System of …, priority 2017, dated 2026)
Entries after “also recorded” stand apart in the source; their conditions may differ.

Legend:
[1] = test system: pancreatic acinar cells; assay: Acinar lineage tracing (tomato-red label, immunofluorescence) in E1aCreERT2;R26-CAG^Tomato mice treated with FAKi; type: in vivo
From the text: Rosa26^CAGTomato (B6.Cg-Gt(Rosa)26Sortm9(CAG-tdTomato)Hze) (Madisen et al., 2010), FAK^fl/fl (Cai et al., 2012), and wild type C57bl/6 mice were purchased from The Jackson Laboratory (Bar Harbor, ME). PdxCre (Criscimanna et al., 2011; Hingorani et al., 2003) mice were obtained from the Mouse Models of Human Cancer Consortium. The E1aCreERT2 strain (Criscimanna et al., 2014; Criscimanna et al., 2011) was generated as previously described (Ji, B. et al., Robust acinar cell transgene expression of CreErT via BAC recombineering, Genesis, 46, 390-395et al (2008)). The FAK-floxed strain (B6; 129X1-Ptk2tm1Lfr/Mmucd) was obtained from the Mutant Mouse Regional Resource Centers (MMRRC).
Immunofluorescence Analysis: Tissue processing, immunostaining, and quantification analysis were performed as previously described (Criscimanna et al., 2011; incorporated by reference in its entirety herein). Imaging was performed using either ZEISS Axiolmager.Z1 or ZEISS LSM 710 microscopes.
Tamoxifen treatment: E1aCreERT;R26-CAG^Tomato mice were injected intraperitoneally with 2 mg tamoxifen on two consecutive days.
(§1) FAKi treatment: FAKi (PF562271; 50 mg/kg) was given orally to mice twice a day for 3 weeks.
Cre-recombinase activity was specifically targeted to the pancreatic acinar cells and their potential progenies. […] The mouse strains are E1aCreERT2;R26-CAG^Tomato, created by crossing the E1aCreERT2 into R26^Tomato mice. Pancreatic acinar cells are exclusively tomato-positive. Mice were treated with PF562271 FAKi. The indicated area in FIG. 2B highlights tomato-negative endocrine islet of Langerhans.

[2] = test system: STZ-treated E1aCreERT2; R26^Tomato mice; assay: Induced diabetes mouse model (streptozotocin), blood glucose and islet immunostaining after FAKi treatment; type: in vivo; conditions: for acinar-derived, insulin-producing cells among beta cells that survived STZ treatment: 7 weeks after STZ treatment and 3 weeks after FAKi treatment
Protocol: as §1
E1aCreERT2; R26^Tomato mice were treated with streptozotocin (STZ), a widely used compound that kills β-cells and, thus, induces diabetes in mice. […] Thus, in the DMSO-treated cohort, recovery was detected in 3/10 mice. […]
The mice were treated for two additional weeks following blood glucose normalization. The bar embedded in the graph of FIG. 5 indicates the duration of FAKi treatment. […] FAKi (50 mg/kg) was given orally to mice twice a day for 3 weeks.

CN(c1ncccc1CNc1nc(Nc2ccc3c(c2)CC(=O)N3)ncc1C(F)(F)F)S(C)(=O)=O.O=S(=O)(O)c1ccccc1 [PF562271]
conversion of acinar cells into insulin-producing cells (tomato-red labeled insulin-expressing cells) ([1]; 50 mg/kg orally twice a day for three weeks): induces conversion of acinar cells into insulin-producing cells
Glut2 expression of the acinar-derived insulin-positive cells ([1]; FAKi treated): also expressed Glut2
amylase expression of the acinar-derived insulin-positive cells ([1]; treatment for three weeks): no longer express amylase; also recorded: no longer expressed amylase
location of the acinar-derived insulin-positive cells ([1]; treatment for three weeks): embedded within preexisting islets
acinar-derived, insulin-producing cells among beta cells that survived STZ treatment [2]: could be detected among pre-existing beta-cells
acinar-derived, insulin-producing cells among beta cells that survived STZ treatment ([2]; listed as FAKi): could be detected among pre-existing beta cells
mice whose blood glucose levels decreased to normal levels ([2]; STZ-treated mice, 50 mg/kg orally twice a day for 3 weeks, DMSO cohort recovery 3/10): 9/10
blood glucose after FAKi treatment ceased ([2]; STZ-treated mice, after 3 weeks of 50 mg/kg orally twice a day): remained at normal levels up to a month
blood glucose ([2]; STZ-treated mice, one week after FAKi treatment (mice treated for 3 weeks)): decrease in blood glucose to normal levels
